Results on twelve molecules are retold here after ChEMBL document CHEMBL1201862, “PubChem BioAssay data set” (2004).

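Growth conditions: 96-well plates. Treatment: test compound, 48 hours, 5 concentrations. Analysis: linear interpolation between bracketing concentrations; unreached endpoints set to highest concentration. GI50 marks 50% less growth.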 The source made the active and inactive calls. Rule as the data show it: active = GI50 up to about 1.1 µM and inactive = higher.

Among the test systems are SW-620; NCI-H226; SK-MEL-5; K562; 786-0; HL-60; OVCAR-3; TK-10; CAKI-1; HOP-62; SNB-19; SN12C; SK-OV-3; MOLT-4; HCT-116; SK-MEL-28.
Assay in all cases: NCI-60 cell line screen, 48 h

For `Cc1ccc(S(=O)(=O)NC2(C=O)CCCC3CCCCC32)cc1` (stereo unspecified), the GI50 in the test with SW-620, in the test on NCI-H226, in the test with SK-MEL-5, in the test on K562, in the test with 786-0 and in the test with HL-60 was > 100 µM (inactive) each time. Also, the GI50 with OVCAR-3, in the test on TK-10, in the test with CAKI-1, with HOP-62, with SNB-19 and in the test with SN12C was > 100 µM (inactive) in each case. The GI50 in the test on SK-OV-3, in the test on MOLT-4, with HCT-116 and in the test on SK-MEL-28 was > 100 µM (inactive) throughout.
As for `CC1=C(C(=O)Nc2cccc(C(F)(F)F)c2)C(c2ccc(O)cc2)C(C(=O)Nc2cccc(C(F)(F)F)c2)=C(C)N1`, the GI50 was 19.4 µM (inactive) in the test on SW-620; 17.3 µM (inactive) with NCI-H226; 16.9 µM (inactive) with SK-MEL-5; 15 µM (inactive) with K562; 16.7 µM (inactive) with 786-0; 15.1 µM (inactive) in the test on HL-60. Moreover, the GI50 in the test with OVCAR-3 was 15.7 µM (inactive); in the test on TK-10 it was 26.1 µM (inactive); in the test with CAKI-1, 11.6 µM (inactive); in the test on HOP-62 it was 19.5 µM (inactive); in the test with SNB-19, 32.2 µM (inactive); in the test on SN12C it was > 10 µM (inactive). In addition, the GI50 was 19.1 µM (inactive) in the test with SK-OV-3, 7.98 µM (inactive) with MOLT-4, 14.6 µM (inactive) in the test with HCT-116 and 18.7 µM (inactive) in the test with SK-MEL-28.
In the case of `CCN(CC)CCNc1ccc(C)c2sc3ccc(O)cc3c(=O)c12`, the GI50 with SW-620 was 0.582 µM (active); in the test with NCI-H226, 0.466 µM (active); in the test with SK-MEL-5 it was 0.851 µM (active); with K562, 0.832 µM (active); in the test on 786-0 it was 0.655 µM (active); in the test on HL-60 it was 0.106 µM (active). Moreover, the GI50 with OVCAR-3 is 2.15 µM (inactive); in the test with TK-10, 3.4 µM (inactive); in the test with CAKI-1 it was 5.73 µM (inactive); with HOP-62, 0.274 µM (active); with SNB-19, 1.82 µM (inactive); in the test with SN12C it was 0.594 µM (active). Also, the GI50 in the test on SK-OV-3 was 1.52 µM (inactive); with MOLT-4 it was < 0.012 µM (active); in the test with HCT-116, 1.15 µM (inactive); in the test with SK-MEL-28, 1.49 µM (inactive).
As to `CCOC(=O)/C(=C/c1ccc(N(C)C)cc1)N(CC)CC`, the GI50 with SW-620 was 44 µM (inactive); in the test on NCI-H226 it was 21.1 µM (inactive); in the test with SK-MEL-5, > 10 µM (inactive); with K562, 22.5 µM (inactive); with 786-0, > 100 µM (inactive); in the test on HL-60, 27.2 µM (inactive). Also, the GI50 is 24.5 µM (inactive) in the test on OVCAR-3; > 100 µM (inactive) in the test with TK-10; > 100 µM (inactive) in the test on CAKI-1; > 100 µM (inactive) in the test with HOP-62; > 100 µM (inactive) in the test with SNB-19; 84.7 µM (inactive) with SN12C. The GI50 in the test with SK-OV-3 is > 100 µM (inactive); in the test on MOLT-4, 32.2 µM (inactive); in the test on HCT-116, 48.1 µM (inactive); in the test with SK-MEL-28, > 100 µM (inactive).
With `CCN1CCC(O)(/C=C/c2ccccc2)C(C(=O)/C=C/c2ccccc2)C1` (stereo unspecified), the GI50 in the test with SW-620 was 1.69 µM (inactive); with NCI-H226, 3.02 µM (inactive); in the test on SK-MEL-5, 3.22 µM (inactive); in the test with 786-0 it was 1.75 µM (inactive); with HL-60, 1.64 µM (inactive); in the test with OVCAR-3, 3.1 µM (inactive). Further, the GI50 in the test on TK-10 is 2.61 µM (inactive); in the test on CAKI-1, 2.71 µM (inactive); with HOP-62, 13.9 µM (inactive); in the test with SNB-19, 9.98 µM (inactive); in the test on SN12C it was 1.79 µM (inactive); in the test with SK-OV-3 it was 7.85 µM (inactive). The GI50 in the test on MOLT-4 was 2.21 µM (inactive); with HCT-116, 1.63 µM (inactive); in the test with SK-MEL-28, 1.89 µM (inactive).
In the case of `Cc1cccc(NC(=O)C(=O)C2C(=O)NC(=O)NC2=O)c1C`, the GI50 in the test on SW-620, in the test with NCI-H226, in the test on SK-MEL-5, in the test with K562, in the test on 786-0 and in the test on HL-60 was > 100 µM (inactive) throughout. Moreover, the GI50 in the test on OVCAR-3, with TK-10, in the test with CAKI-1, in the test on HOP-62, in the test with SNB-19 and with SN12C was > 100 µM (inactive) each time. The GI50 in the test with SK-OV-3, in the test with MOLT-4, with HCT-116 and in the test on SK-MEL-28 was > 100 µM (inactive) in each case.
As for `COC(=O)c1ccc(/C=C/S(=O)(=O)c2ccccc2)cc1`, the GI50 with SW-620, in the test on NCI-H226, in the test on SK-MEL-5, with K562, in the test with 786-0 and in the test with HL-60 was > 100 µM (inactive) throughout. Further, the GI50 in the test with OVCAR-3, with TK-10, with CAKI-1, with HOP-62, in the test on SNB-19 and in the test with SN12C was > 100 µM (inactive) each time. For the same molecule, the GI50 with SK-OV-3 is > 100 µM (inactive); in the test on MOLT-4, > 100 µM (inactive); with HCT-116, > 100 µM (inactive); in the test with SK-MEL-28 it was 44.9 µM (inactive).
For the molecule `O=C1C(=O)C2(CC1S(=O)(=O)c1ccccc1)c1ccccc1-c1ccccc12` (stereo unspecified), the GI50 was 34.6 µM (inactive) in the test with SW-620; 37.4 µM (inactive) in the test with NCI-H226; 14.6 µM (inactive) in the test on SK-MEL-5; 27.6 µM (inactive) in the test with K562; 26.6 µM (inactive) with 786-0; 27.9 µM (inactive) in the test on HL-60. In addition, the GI50 with OVCAR-3 was > 10 µM (inactive); in the test on TK-10 it was 25.8 µM (inactive); with CAKI-1, 29 µM (inactive); in the test with HOP-62 it was 21.1 µM (inactive); in the test on SNB-19, 20.6 µM (inactive); in the test with SN12C it was 28.8 µM (inactive). In addition, the GI50 is 38.9 µM (inactive) with SK-OV-3, 20.4 µM (inactive) with MOLT-4, 17.3 µM (inactive) in the test with HCT-116 and 19.7 µM (inactive) with SK-MEL-28.
In the case of `CCOC(=O)CCC(NC(=O)c1ccc(NCc2ccc3nc(-c4ccccc4)c(Cl)nc3c2)cc1)C(=O)OCC` (stereo unspecified), the GI50 with SW-620 was > 100 µM (inactive); in the test with NCI-H226 it was 32.4 µM (inactive); in the test with SK-MEL-5 it was 11.3 µM (inactive); in the test with K562, 6.19 µM (inactive); in the test with 786-0, 80.7 µM (inactive); with HL-60 it was 17.4 µM (inactive). For the same molecule, the GI50 in the test on OVCAR-3 was 17.2 µM (inactive); with TK-10, 83.9 µM (inactive); in the test with CAKI-1, 30.6 µM (inactive); in the test on HOP-62 it was > 100 µM (inactive); with SNB-19 it was 97.7 µM (inactive); in the test on SN12C, 41.1 µM (inactive). Further, the GI50 was > 100 µM (inactive) with SK-OV-3, 9.25 µM (inactive) in the test on MOLT-4, 40.7 µM (inactive) in the test on HCT-116 and > 10 µM (inactive) in the test with SK-MEL-28.
For `NC(=O)C(=O)N/N=C(\CC1(O)C(=O)Nc2ccccc21)c1ccc2ccccc2c1` (stereo unspecified), the GI50 in the test on SW-620 was 33.5 µM (inactive); with NCI-H226 it was 41.4 µM (inactive); with SK-MEL-5, 32.3 µM (inactive); in the test on K562, 23.1 µM (inactive); in the test with 786-0 it was 36.5 µM (inactive); in the test with HL-60, 16.6 µM (inactive). For the same molecule, the GI50 in the test on OVCAR-3 was 25.8 µM (inactive); with TK-10, 50.2 µM (inactive); in the test on CAKI-1, 35.2 µM (inactive); in the test with HOP-62 it was 51.2 µM (inactive); in the test on SNB-19, 22.9 µM (inactive); in the test on SN12C it was 26.3 µM (inactive). Moreover, the GI50 in the test with SK-OV-3 was 46.9 µM (inactive); with MOLT-4 it was 20.9 µM (inactive); in the test with HCT-116 it was 9.48 µM (inactive); in the test with SK-MEL-28, 26.9 µM (inactive).
For the molecule `CC(=O)OC12C=CC(=O)N1c1ccccc1C(=O)O2` (stereo unspecified), the GI50 in the test with SW-620, in the test with NCI-H226, in the test on SK-MEL-5, with K562, in the test with 786-0 and in the test with HL-60 was > 100 µM (inactive) throughout. Besides, the GI50 in the test on OVCAR-3, in the test with TK-10, with CAKI-1, in the test on HOP-62, with SNB-19 and with SN12C was > 100 µM (inactive) throughout. Besides, the GI50 in the test with SK-OV-3, in the test on MOLT-4, with HCT-116 and with SK-MEL-28 was > 100 µM (inactive) each time.
`COC(=O)C1C(=O)O[C@@H](c2ccc(OC)cc2OC)C1C(=O)OC` (stereo partly specified): the GI50 in the test with SW-620, in the test on NCI-H226, in the test with SK-MEL-5, with K562, in the test with 786-0 and in the test on HL-60 was > 100 µM (inactive) each time. The GI50 in the test on OVCAR-3, in the test with TK-10, in the test on CAKI-1, with HOP-62, with SNB-19 and with SN12C was > 100 µM (inactive) each time. Further, the GI50 with SK-OV-3, in the test with MOLT-4, in the test on HCT-116 and in the test with SK-MEL-28 was > 100 µM (inactive) throughout.
